Test [1] deals with drug-resistant clinical isolates and E. coli ML-35p. In words: Checkerboard titration, all tested bacteria together. In kind it is cell-based. The note with it: planktonic bacteria. On the procedure: The mode of interaction of the test substances while applied in combinations was analyzed based on the calculation of the fractional (or combination) indices—the mathematical “embodiment” of the Loewe additivity paradigm that we used for the classification of combination effects in this study. As synergy is generally defined as a greater than additive effect, and antagonism as a lower than additive effect, the main problem is to establish a reference level for this additive effect. The Loewe approach uses the idea of the self-additivity of an individual substance; thus, the individual activity may be regarded as an additivity control. To identify additivity, synergy, or antagonism in Loewe terms, one should choose a fixed level of the studied effect and then compare the doses of individual substances required to reach this level, with the fractional doses of the substances in combination providing the same level of the effect.
In the case of activity testing of combinations toward planktonic bacteria, a checkerboard titration scheme was used to create an array of mixtures of the two substances (A and B) in various concentrations by diluting the first one two-fold row-by-row and the second one column-by-column. The left column and the bottom row contained the dilutions of only one substance (A or B) to control their individual activity levels in every experiment. […]

In a further test the test system is S. aureus 1399/17. In words: microbe, parasite or virus in culture. In kind it is cell-based, Staphylococcus aureus. The note with it: antiseptics and surfactants; MHB, overnight 37 °C; median of 3–4 independent experiments; prontosan as polyhexanide. On the procedure:
(§1) In this regard the test plates were preincubated for 1 h at 37 °C with 0.1% bovine serum albumin (BSA) in distilled water before use. Bacteria were grown overnight at 37 °C with shaking in 2.1% Müller–Hinton broth (MHB), and then a small aliquot was transferred into the fresh portion of the same medium for another 2–3 h on the day of the experiment to provide us with the log phase bacterial suspension. Concentration of bacterial cells in suspension was evaluated based on absorbance at 620 nm and diluted down to 1 × 10^6 CFU/mL with MHB. Equal volumes of the prepared bacterial suspension in MHB and two-fold serial dilutions of the antimicrobials in 10 mM sodium phosphate (Na-P) buffer (pH 7.4) with 0.1% BSA were mixed and incubated overnight at 37 °C. The lowest concentration where no bacterial growth was observed the next day under visual examination was considered the minimal inhibitory concentration. The test was repeated at least three times, and the final MIC value was established as a median result. Each experiment was conducted in triplicates. Terasaki microplates (10 µL end volume, V-shaped bottom; Sarstedt, Nümbrecht, Germany) were used.

In another test the test system is P. aeruginosa MDR 522/17. Put plainly: microbe, parasite or virus in culture. In kind it is cell-based, Pseudomonas aeruginosa. The note with it: antiseptics and surfactants; MHB, overnight 37 °C; median of 3–4 independent experiments; prontosan as polyhexanide. As to the method:
as §1

The next test relates to E. coli ML-35p. Put plainly: Broth microdilution assay (MIC, planktonic bacteria). In kind it is cell-based, Escherichia coli. The note with it: antiseptics and surfactants; MHB, overnight 37 °C; median of 3–4 independent experiments; prontosan as polyhexanide. As to the method:
as §1
A general note: In broth dilution the organism is exposed to a series of concentrations in liquid medium.

Test [2] relates to K. pneumoniae ESBL 344/17. Put plainly: microbe, parasite or virus in culture. In kind it is cell-based, Klebsiella pneumoniae. The note with it: antiseptics and surfactants; MHB, overnight 37 °C; median of 3–4 independent experiments; prontosan as polyhexanide. As to the method:
as §1

The next test has as its system E. coli ESBL 521/17. Put plainly: microbe, parasite or virus in culture. In kind it is cell-based, Escherichia coli. The note with it: antiseptics and surfactants; MHB, overnight 37 °C; median of 3–4 independent experiments; prontosan as polyhexanide. As to the method: as §1
The next test has as its system A. baumannii 7226/16. In words: microbe, parasite or virus in culture. The note with it: antiseptics and surfactants; MHB, overnight 37 °C; median of 3–4 independent experiments; prontosan as polyhexanide. In kind it is cell-based, Acinetobacter baumannii. On the procedure:
as §1

Another test has as its system bacteria. The note with it: cited from earlier work. The source says: Among surfactants, as was expected based on the literature data, sodium lauroyl sarcosinate was the most universally active toward bacteria. […] This is especially interesting in light of the fact that prontosan has an amidopopyl betaine in its composition alongside the poly ...

On to `[Na+].[O-]Cl` [Sodium hypochlorite], for which the “Type of interaction with AMPs, antibacterial effect of combinations” value in test [1] is recorded as “antagonistic interaction”. Further, the MIC against S. aureus 1399/17 was 10,000 µg/mL; with P. aeruginosa MDR 522/17, 5000 µg/mL; with E. coli ML-35p, 5000 µg/mL; in test [2] it was 5000 µg/mL; with E. coli ESBL 521/17, 5000 µg/mL; in the test with A. baumannii 7226/16, 2500 µg/mL.

Take `CCCCCCCCCCCC(=O)N(C)CC(=O)[O-].[Na+]` [Sodium lauroyl sarcosinate]: the “Type of interaction with AMPs, antibacterial effect of combinations” value in test [1] was “antagonistic interaction”. Further, the “MICs by disk-diffusion method” value in the test on bacteria is 37.5 to 300 mg/mL. Also, the MIC is recorded as >50,000 µg/mL in the test on S. aureus 1399/17; 50,000 µg/mL with P. aeruginosa MDR 522/17; 6250 µg/mL in the test on E. coli ML-35p; 12,500 µg/mL in test [2]; 12,500 µg/mL against E. coli ESBL 521/17; 25,000 µg/mL against A. baumannii 7226/16.
